# Results published in patent publication US20100210836A1, “SMALL MOLECULE INHIBITORS OF LYMPHOID TYROSINE PHOSPHATASE” (University of Southern California, priority 2009, published 2010).
# Like-named read-outs stand apart in the source and are kept apart here.
# Key:
# PTP-PEST = molecular target: T1, PTP-PEST (Homo sapiens, UniProt Q05209); test: Counter-screen phosphatase assay PTP-PEST; assay type: biochemical; conditions: read-out: PEST IC50
# T1 sequence (Q05209 2-323): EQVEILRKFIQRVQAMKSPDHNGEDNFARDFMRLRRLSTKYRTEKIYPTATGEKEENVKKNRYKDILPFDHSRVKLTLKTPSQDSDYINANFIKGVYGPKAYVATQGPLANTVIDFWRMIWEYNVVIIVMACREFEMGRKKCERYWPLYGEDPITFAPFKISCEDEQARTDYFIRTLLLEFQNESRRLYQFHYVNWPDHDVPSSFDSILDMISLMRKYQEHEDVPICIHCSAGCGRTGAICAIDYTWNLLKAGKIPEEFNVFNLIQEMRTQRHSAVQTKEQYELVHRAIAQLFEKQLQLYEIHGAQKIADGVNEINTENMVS
# LYP/PTPN22 = molecular target: T2, LYP/PTPN22 (Homo sapiens, UniProt Q9Y2R2); test: biochemical
# T2 construct: catalytic domains of LYP (aa 2-309) and PTP-PEST (aa 2-323, PEST); 6xHis (N, cleaved yes); made in house; host or cells: E. coli BL21
# T2 sequence (Q9Y2R2 2-309): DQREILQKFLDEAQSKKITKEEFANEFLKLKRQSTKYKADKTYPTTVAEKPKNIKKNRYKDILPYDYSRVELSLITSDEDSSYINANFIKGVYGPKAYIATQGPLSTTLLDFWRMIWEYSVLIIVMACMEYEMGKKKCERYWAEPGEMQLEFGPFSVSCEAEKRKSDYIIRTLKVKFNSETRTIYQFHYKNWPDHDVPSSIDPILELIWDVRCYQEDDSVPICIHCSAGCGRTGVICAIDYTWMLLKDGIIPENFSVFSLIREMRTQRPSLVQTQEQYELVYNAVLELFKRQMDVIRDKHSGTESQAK
# Protocol: Chemical Library Screening for LYP Inhibitors. A library consisting of a highly diverse set of 4,000 compounds was screened in a 96-well format in an assay specific for LYP activity. […] The reaction mixture with the compounds was incubated for 25 min at 37° C. […] All assays were done in triplicate. The IC50 values were then determined for each drug from a plot of log [drug concentration] versus percentage of enzyme inhibition. Absorbance data were measured using a Molecular Devices Emax Precision Microplate reader.
# Identification of Compounds as LYP Inhibitors. We initially screened a library of 4000 drug-like small-molecule compounds against LYP/PTPN22, using p-nitrophenyl phosphate (pNPP) as a substrate. The ability of the library members to inhibit LYP/PTPN22 catalyzed hydrolysis of pNPP was measured in a buffer containing 50 mM Bis-Tris pH 6.0, 1 mM DTT at 37° C.
# [1] = LYP IC50, Table IV, analogues of E3P13
# [2] = selectivity, ratio PEST IC50 / LYP IC50, Table IV
# [3] = Table IV, analogues of E3P13, read-out: LYP IC50
IC50 (PTP-PEST) [µM],IC50 (LYP/PTPN22; [1]) [µM],Compound,also measured
5.55,,Cc1ccc2[nH]c(=O)c(C(c3nnnn3C3CCCC3)N(Cc3ccccc3)Cc3ccc(C(C)C)cc3)cc2c1 (stereo not drawn) [compound 1],
17,,Cc1ccc2[nH]c(=O)c([C@@H](c3nnnn3C3CCCC3)N(Cc3ccccc3)Cc3ccc(Cl)cc3)cc2c1 [compound 7],
15.9,10.4,CCC(C)(C)n1nnnc1[C@@H](c1cc2cc(C)ccc2[nH]c1=O)N1CCCC2(CCCCC2)C1 [compound 9],PEST_LYP (LYP/PTPN22; [2]): 1.53
15.1,11.1,Cc1ccc2[nH]c(=O)c([C@@H](c3nnnn3Cc3ccccc3)N3CCCC4(CCCCC4)C3)cc2c1 [compound 11],PEST_LYP (LYP/PTPN22; [2]): 1.36
20.1,11.9,CCC(C)(C)n1nnnc1[C@@H](c1cc2cc(C)cc(C)c2[nH]c1=O)N1CCCC2(CCCCC2)C1 [compound 12],PEST_LYP (LYP/PTPN22; [2]): 1.69
15.2,12.9,Cc1cc(C)c2[nH]c(=O)c([C@@H](c3nnnn3Cc3ccccc3)N3CCCC4(CCCCC4)C3)cc2c1 [compound 14],PEST_LYP (LYP/PTPN22; [2]): 1.18
15.1,,COc1ccc(CN(Cc2ccccc2)[C@@H](c2cc3cc(C)ccc3[nH]c2=O)c2nnnn2C2CCCC2)cc1 [compound 15],
19.7,13.3,Cc1ccc2[nH]c(=O)c([C@@H](c3nnnn3C3CCCC3)N(CCc3ccccc3)Cc3ccccc3)cc2c1 [compound 16],PEST_LYP (LYP/PTPN22; [2]): 1.46
12.9,13.4,CCC(C)(C)n1nnnc1[C@@H](c1cc2cccc(C)c2[nH]c1=O)N1CCCC2(CCCCC2)C1 [compound 18],PEST_LYP (LYP/PTPN22; [2]): 0.96
30.8,13.6,Cc1cc(C)c2[nH]c(=O)c([C@H](c3nnnn3C(C)(C)C)N3CCCC4(CCCCC4)C3)cc2c1 [compound 19],PEST_LYP (LYP/PTPN22; [2]): 2.27
38,17.1,Cc1ccc2cc([C@H](c3nnnn3CC3CCCC3)N3CCCC4(CCCCC4)C3)c(=O)[nH]c2c1 [compound 23],PEST_LYP (LYP/PTPN22; [2]): 2.22
26.5,,Cc1ccc2[nH]c(=O)c([C@H](c3nnnn3C3CCCC3)N3CCC[C@@H](C)C3)cc2c1 [compound 24],
17.8,18.1,Cc1ccc2cc([C@H](c3nnnn3Cc3ccccc3)N3CCCC4(CCCCC4)C3)c(=O)[nH]c2c1C [compound 25],PEST_LYP (LYP/PTPN22; [2]): 0.99
38,,Cc1ccc2[nH]c(=O)c([C@H](c3nnnn3C3CCCC3)N3CCN(c4ccc(F)cc4)CC3)cc2c1 [compound 45],
,,COc1ccccc1N1CCN([C@H](c2cc3cc(C)ccc3[nH]c2=O)c2nnnn2C2CCCC2)CC1 [compound 50],IC50 (LYP/PTPN22; [3]): > 40 µM
,> 40,Cc1cccc2cc([C@H](c3nnnn3CC3CCCC3)N3CCCC4(CCCCC4)C3)c(=O)[nH]c12 [compound 51],
,,CCN1CCN([C@H](c2cc3cc(C)ccc3[nH]c2=O)c2nnnn2C2CCCC2)CC1 [compound 52],IC50 (LYP/PTPN22; [3]): > 40 µM
,> 40,Cc1ccc2[nH]c(=O)c([C@H](c3nnnn3C3CCCC3)N(C)C3CCCCC3)cc2c1 [compound 53],
,> 40,Cc1ccc2[nH]c(=O)c([C@@H](c3nnnn3C3CCCC3)N3CCCCCC3)cc2c1 [compound 54],
,> 40,COc1ccc2cc([C@H](c3nnnn3CC3CCCC3)N3CCCC4(CCCCC4)C3)c(=O)[nH]c2c1 [compound 55],
,,Cc1ccc2[nH]c(=O)c([C@H](c3nnnn3C3CCCC3)N3CCN(C)CC3)cc2c1 [compound 56],IC50 (LYP/PTPN22; [3]): > 40 µM
,> 40,Cc1ccc2[nH]c(=O)c([C@H](c3nnnn3C3CCCC3)N3CCN4CCC[C@H]4C3)cc2c1 [compound 57],
,> 40,Cc1ccc2[nH]c(=O)c([C@@H](c3nnnn3C3CCCC3)N3CCOCC3)cc2c1 [compound 58],

IC50 (PTP-PEST) [µM],IC50 (LYP/PTPN22; [1]) [µM],Compound,also measured
,> 40,Cc1ccc2[nH]c(=O)c([C@@H](c3nnnn3C3CCCC3)N3CCCC3)cc2c1 [compound 59],
,> 40,Cc1ccc2cc([C@H](c3nnnn3C3CCCC3)N3CCC[C@@H](C)C3)c(=O)[nH]c2c1C [compound 60],
,> 40,Cc1cc(C)c2[nH]c(=O)c([C@H](c3nnnn3C3CCCC3)N3CCCCC3)cc2c1 [compound 61],
,> 40,Cc1cc(C)c2[nH]c(=O)c([C@H](c3nnnn3C3CCCC3)N3CCC(C)CC3)cc2c1 [compound 62],
,> 40,Cc1ccc2cc([C@@H](c3nnnn3C3CCCC3)N3CCCCC3)c(=O)[nH]c2c1C [compound 63],
,> 40,COc1ccc2cc([C@@H](c3nnnn3C3CCCC3)N3CCCCC3)c(=O)[nH]c2c1 [compound 64],
,> 40,COc1ccc2cc([C@@H](c3nnnn3C3CCCC3)N3CCC(C)CC3)c(=O)[nH]c2c1 [compound 65],
,> 40,COc1ccc2cc([C@H](c3nnnn3C3CCCC3)N3CCN(c4ccccc4)CC3)c(=O)[nH]c2c1 [compound 66],
,> 40,COc1ccc(N2CCN([C@H](c3cc4ccc(OC)cc4[nH]c3=O)c3nnnn3C3CCCC3)CC2)cc1 [compound 67],
,> 40,Cc1ccc2cc([C@@H](c3nnnn3C3CCCC3)N3CCCCC3)c(=O)[nH]c2c1 [compound 68],
,> 40,Cc1cccc2cc([C@H](c3nnnn3C3CCCCC3)N3CCN(Cc4ccccc4)CC3)c(=O)[nH]c12 [compound 69],
,> 40,Cc1cc(C)c2cc([C@H](c3nnnn3C3CCCC3)N3CCCCC3)c(=O)[nH]c2c1 [compound 70],
,> 40,Cc1cc(C)c2cc([C@H](c3nnnn3C3CCCC3)N3CCC(C)CC3)c(=O)[nH]c2c1 [compound 71],
,> 40,Cc1cccc2cc([C@H](c3nnnn3C3CCCC3)N3CCC[C@@H](C)C3)c(=O)[nH]c12 [compound 72],
,,Cc1ccc2[nH]c(=O)c([C@H](c3nnnn3C3CCCC3)N3CCN(C4CCCCC4)CC3)cc2c1 [compound 73],IC50 (LYP/PTPN22; [3]): > 40 µM
,,Cc1ccc2[nH]c(=O)c([C@H](c3nnnn3C3CCCC3)N3CCN(c4ccc(O)cc4)CC3)cc2c1 [compound 74],IC50 (LYP/PTPN22; [3]): > 40 µM
,> 40,Cc1cccc2cc([C@H](c3nnnn3C3CCCC3)N3CCN(C)CC3)c(=O)[nH]c12 [compound 75],
,> 40,Cc1cccc2cc([C@@H](c3nnnn3C3CCCC3)N3CCCCC3)c(=O)[nH]c12 [compound 76],
,,Cc1ccc2[nH]c(=O)c([C@H](c3nnnn3C3CCCC3)N3CCN(Cc4ccccc4)CC3)cc2c1 [compound 77],IC50 (LYP/PTPN22; [3]): > 40 µM
,> 40,Cc1ccc2[nH]c(=O)c([C@H](c3nnnn3C3CCCC3)N3CCC(O)CC3)cc2c1 [compound 78],
,> 40,CCOC(=O)C1CCN([C@H](c2cc3cc(C)ccc3[nH]c2=O)c2nnnn2C2CCCC2)CC1 [compound 79],
,,Cc1ccc2[nH]c(=O)c([C@H](c3nnnn3C3CCCC3)N3CCN(Cc4ccccc4)CC3)cc2c1 [compound 80],IC50 (LYP/PTPN22; [3]): > 40 µM

Compound,IC50 (PTP-PEST) [µM],IC50 (LYP/PTPN22; [1]) [µM],also measured
Cc1ccc2[nH]c(=O)c(C(c3nnnn3C3CCCC3)N3CCN(C(c4ccccc4)c4ccccc4)CC3)cc2c1 (stereo not drawn) [compound 3],8.71,,PEST_LYP (LYP/PTPN22): 1.38; IC50 (LYP/PTPN22; LYP IC50): 6.3 µM
Cc1ccc2cc(C(c3nnnn3C3CCCC3)N(Cc3ccccc3)Cc3ccc(C(C)C)cc3)c(=O)[nH]c2c1 (stereo not drawn) [compound 4],9.96,,PEST_LYP (LYP/PTPN22): 1.31; IC50 (LYP/PTPN22; LYP IC50): 7.62 µM
Cc1ccc2cc(C(c3nnnn3C3CCCC3)N3CCN(C(c4ccccc4)c4ccccc4)CC3)c(=O)[nH]c2c1 (stereo not drawn) [compound 5],9.66,,PEST_LYP (LYP/PTPN22): 0.81; IC50 (LYP/PTPN22; LYP IC50): 7.86 µM
Cc1ccc2cc(C(c3nnnn3C3CCCC3)N3CCN(C(c4ccccc4)c4ccccc4)CC3)c(=O)[nH]c2c1C (stereo not drawn) [compound 6],9.8,,PEST_LYP (LYP/PTPN22): 1.07; IC50 (LYP/PTPN22; LYP IC50): 9.13 µM
Cc1cc(C)c2[nH]c(=O)c(C(c3nnnn3C3CCCC3)N3CCN(C(c4ccccc4)c4ccccc4)CC3)cc2c1 (stereo not drawn) [compound 8],9.57,,PEST_LYP (LYP/PTPN22): 0.98; IC50 (LYP/PTPN22; LYP IC50): 9.72 µM
Cc1cc(C)c2cc(C(c3nnnn3C3CCCC3)N3CCCC4(CCCCC4)C3)c(=O)[nH]c2c1 (stereo not drawn) [compound 10],16,,PEST_LYP (LYP/PTPN22): 1.44; IC50 (LYP/PTPN22; LYP IC50): 11.1 µM
Cc1ccc2cc(C(c3nnnn3C3CCCC3)N3CCCC4(CCCCC4)C3)c(=O)[nH]c2c1C (stereo not drawn) [compound 13],16.1,,PEST_LYP (LYP/PTPN22): 1.33; IC50 (LYP/PTPN22; LYP IC50): 12.1 µM
Cc1cccc2cc(C(c3nnnn3C3CCCC3)N3CCN(C(c4ccccc4)c4ccccc4)CC3)c(=O)[nH]c12 (stereo not drawn) [compound 17],10.1,,PEST_LYP (LYP/PTPN22): 0.76; IC50 (LYP/PTPN22; LYP IC50): 13.3 µM
Cc1ccc2cc(C(c3nnnn3C3CCCC3)N3CCCC4(CCCCC4)C3)c(=O)[nH]c2c1 (stereo not drawn) [compound 21],21.8,,PEST_LYP (LYP/PTPN22): 1.43; IC50 (LYP/PTPN22; LYP IC50): 15.2 µM
Cc1cccc2cc(C(c3nnnn3C3CCCC3)N3CCCC4(CCCCC4)C3)c(=O)[nH]c12 (stereo not drawn) [compound 22],21.1,,PEST_LYP (LYP/PTPN22): 1.34; IC50 (LYP/PTPN22; LYP IC50): 15.8 µM
COc1ccc2cc(C(c3nnnn3C3CCCC3)N3CCCC4(CCCCC4)C3)c(=O)[nH]c2c1 (stereo not drawn) [compound 26],31.7,,PEST_LYP (LYP/PTPN22): 1.74; IC50 (LYP/PTPN22; LYP IC50): 18.2 µM
